A word on the IC50: it is the concentration that gives 50% inhibition. What is called Ki is a measure of affinity in units of concentration, obtained from inhibition or displacement. One may read the GI50 as the concentration at which growth is held to half of that of the control.

Here are results for 9 molecules from patent publication US20260125683A1, “TREATMENT OF CANCERS HAVING A DRUG-RESISTANT MESENCHYMAL CELL STATE” (DANA-FARBER CANCER INSTITUTE, INC., priority 2023, published 2026).

Entries after “also recorded” stand apart in the source; their conditions may differ. Where a name gives a salt, the structure may show the parent alone. Read-outs that look alike come from different tables or passages of the source.

Series [1] concerns various cancer cell lines. The conditions noted are these: read-out: IC50, apoptosis induction; cited from earlier work.
Series [2] concerns normal human fibroblasts. The settings on record: read-out: IC50, apoptosis induction; cited from earlier work.
Series [3] concerns anandamide uptake. The settings on record: cited from earlier work.
The test system of series [4] is anandamide levels. The conditions noted are these: rat cerebellum; cited from earlier work.
The test system of series [5] is variety of cell types. The settings on record: cited from earlier work.
The conditions of series [6]: cited from earlier work.
For series [7], the target named is MCT1 (Homo sapiens, UniProt P53985). The settings on record: cited from earlier work.
Series [8] concerns the target MCT2 (Homo sapiens, UniProt O60669). The settings on record: cited from earlier work.
Series [9] has as its target sodium/D-glucose cotransporter. The conditions noted are these: cited from earlier work.
Series [10] deals with neutrophil chemotaxis. The settings on record: in vitro; read-out: IC50, neutrophil chemotaxis in response to IL-8; cited from earlier work.
In series [11] the test system is neutrophil margination. The settings on record: in vivo; read-out: IC50, neutrophil margination induced by IL-8; cited from earlier work.
The target of series [12] is PAR2 (Homo sapiens, UniProt P55085). The settings on record: cited from earlier work.
Series [13] deals with platelet aggregation. The conditions noted are these: cited from earlier work.
For series [14], the target named is proteinase-activated receptor 1 (PAR1) (Homo sapiens, UniProt P25116). The conditions noted are these: read-out: IC50, blocking binding of haTRAP; cited from earlier work.
The target in series [15] is PAR4 (Homo sapiens, UniProt Q96RI0). The settings on record: cited from earlier work.
Series [16] deals with Glut1 (Homo sapiens, UniProt P11166). The settings on record: cited from earlier work.
The test system of series [17] is Survivin promoter. The settings on record: HeLa-SURP-luc and CHO-SV40-luc cells; read-out: IC50, inhibition of Survivin promoter activity; cited from earlier work.
Series [18] has as its system KP4, Panc1, Miapaca2 and 8988T (mesenchymal) vs Panc0403, Panc0504 and 8988S (epithelial) cancer cell lines. Briefly: Cell growth by cell-titer-glo assay, mesenchymal vs epithelial cancer cell lines. The series is classed as cell-based. The conditions noted are these: FIG. 8. As for the experimental part: Validation studies were performed for two mesenchymal selective dependencies.

Series [19] deals with tumor cells having a mesenchymal state. Put plainly: EMT signature and drug sensitivity data (PRISM and CTD^2, FIG. 2). The conditions noted are these: mesenchymal vs epithelial state.
Description: Data Curation. All analyses were performed using publicly available data downloaded from the Dependency Map web portal, corresponding to the 22Q2 release. Drug testing data was from the 19Q4 release of PRISM and the most recent release (2015) of CTD (Gröger, C. J., et al., 2012). EMT gene sets were taken from the supplementals of the Byers (2013), Groger (2012), and Taube (2010) EMT related publications. Gene sets were broken down into up (mesenchymal) and down (epithelial) sub-gene sets. If up or down is not labeled in a figure, the composite gene set (union of the up and down lists) was used for scoring. Only carcinoma coded cell lines were used in analyses. These carcinoma lines were then subset further, when indicated, based on KRAS mutation or pancreas lineage.
Computational Methods. Analyses were performed using the statistical programming language R (v4.0.3, macOS 12.5.1, platform: x86_64-apple-darwin17.0 (64-bit)). EMT scores were generated using the GSVA package (v1.38.2) and Pearson correlations were calculated using the base cor function. All plots were generated using ggplot2 (v3.3.6). Data manipulation was performed using the dplyr (v1.0.8) and reshape2 (v.1.4.4) packages.
Series [20] relates to carcinoma cell lines. Put plainly: Correlation of EMT signatures with PRISM compound AUCs. The settings on record: PRISM drug testing cohort. An excerpt: (§1) FIG. 2A-2B—Investigation of the EMT signature and drug sensitivity data. FIG. 2A illustrates the top and bottom correlations between the PRISM compound AUCs (measure of drug sensitivity with a higher value indicating resistance) across three independent EMT down (FIG. 2A) and up (FIG. 2A continued) signatures (Byers, Groger, and Taube). FIG. 2B illustrates the top and bottom correlations between the CTD^2 drug testing cohort compound AUCs with the down (FIG. 2B) and up (FIG. 2B continued) EMT signatures (Byers, Groger, and Taube).
(§2) Applicants analyzed correlations between the EMT signatures and drug sensitivities (FIG. 2).
(§3) Data Curation. All analyses were performed using publicly available data downloaded from the Dependency Map web portal, corresponding to the 22Q2 release. Drug testing data was from the 19Q4 release of PRISM and the most recent release (2015) of CTD ([…]). EMT gene sets were taken from the supplementals of the Byers (2013), Groger (2012), and Taube (2010) EMT related publications. Gene sets were broken down into up (mesenchymal) and down (epithelial) sub-gene sets. If up or down is not labeled in a figure, the composite gene set (union of the up and down lists) was used for scoring. […]
(§4) Computational Methods. […] EMT scores were generated using the GSVA package (v1.38.2) and Pearson correlations were calculated using the base cor function. […]

Series [21] concerns SV40 promoter. The conditions noted are these: cited from earlier work.
The subject of series [22] is carcinoma cell lines. Briefly: Correlation of EMT signatures with CTD^2 compound AUCs. The settings on record: CTD^2 drug testing cohort.
Description: as §1, §2, §3, §4

Glut1, sequence (P11166 whole entry, species assumed): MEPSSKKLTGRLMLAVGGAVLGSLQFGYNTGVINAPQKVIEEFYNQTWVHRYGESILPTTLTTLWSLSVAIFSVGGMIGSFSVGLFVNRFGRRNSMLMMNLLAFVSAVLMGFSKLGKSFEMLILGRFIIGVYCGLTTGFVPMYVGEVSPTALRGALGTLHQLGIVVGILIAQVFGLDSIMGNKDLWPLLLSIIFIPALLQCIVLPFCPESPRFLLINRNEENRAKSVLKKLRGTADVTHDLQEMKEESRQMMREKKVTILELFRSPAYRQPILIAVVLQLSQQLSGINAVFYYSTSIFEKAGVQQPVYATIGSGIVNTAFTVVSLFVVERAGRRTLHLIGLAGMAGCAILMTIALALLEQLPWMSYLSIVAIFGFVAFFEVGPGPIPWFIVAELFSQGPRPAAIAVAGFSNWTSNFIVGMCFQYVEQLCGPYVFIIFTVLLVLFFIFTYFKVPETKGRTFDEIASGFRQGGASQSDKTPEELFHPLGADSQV
PAR4, sequence (Q96RI0 18-385): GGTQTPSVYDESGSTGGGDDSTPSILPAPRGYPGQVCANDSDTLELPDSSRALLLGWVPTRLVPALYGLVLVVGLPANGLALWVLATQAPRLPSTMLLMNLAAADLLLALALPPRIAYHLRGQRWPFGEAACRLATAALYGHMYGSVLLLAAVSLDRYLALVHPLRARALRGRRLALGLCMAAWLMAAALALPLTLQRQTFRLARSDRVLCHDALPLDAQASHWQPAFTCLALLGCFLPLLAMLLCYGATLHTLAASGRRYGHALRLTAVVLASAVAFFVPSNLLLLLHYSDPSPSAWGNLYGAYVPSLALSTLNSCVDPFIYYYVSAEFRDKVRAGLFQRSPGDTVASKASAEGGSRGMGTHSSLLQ
MCT1, sequence (P53985 whole entry): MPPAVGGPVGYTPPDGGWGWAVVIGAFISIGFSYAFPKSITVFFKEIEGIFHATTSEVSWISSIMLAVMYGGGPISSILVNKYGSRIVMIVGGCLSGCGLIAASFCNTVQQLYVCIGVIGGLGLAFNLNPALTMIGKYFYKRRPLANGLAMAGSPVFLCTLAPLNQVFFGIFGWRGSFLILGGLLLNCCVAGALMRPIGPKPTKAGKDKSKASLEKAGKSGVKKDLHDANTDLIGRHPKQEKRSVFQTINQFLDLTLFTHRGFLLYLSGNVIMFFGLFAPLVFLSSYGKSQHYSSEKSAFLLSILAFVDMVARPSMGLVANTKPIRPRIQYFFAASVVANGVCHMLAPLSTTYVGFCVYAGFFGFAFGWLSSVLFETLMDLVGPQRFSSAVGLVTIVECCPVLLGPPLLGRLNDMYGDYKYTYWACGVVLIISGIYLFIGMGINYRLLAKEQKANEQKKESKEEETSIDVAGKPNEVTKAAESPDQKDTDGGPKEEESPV
proteinase-activated receptor 1 (PAR1), sequence (P25116 22-425, species assumed): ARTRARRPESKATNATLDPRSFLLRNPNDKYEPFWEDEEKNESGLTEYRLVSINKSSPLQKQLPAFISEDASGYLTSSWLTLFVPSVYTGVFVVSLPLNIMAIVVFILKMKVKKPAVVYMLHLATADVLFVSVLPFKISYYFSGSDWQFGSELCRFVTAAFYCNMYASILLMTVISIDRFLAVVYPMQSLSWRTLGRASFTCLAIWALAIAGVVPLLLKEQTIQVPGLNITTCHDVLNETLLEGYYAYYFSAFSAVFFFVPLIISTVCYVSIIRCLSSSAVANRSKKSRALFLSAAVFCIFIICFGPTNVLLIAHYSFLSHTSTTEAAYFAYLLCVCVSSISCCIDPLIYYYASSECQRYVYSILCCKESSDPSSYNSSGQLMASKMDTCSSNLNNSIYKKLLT
PAR2, sequence (P55085 26-397): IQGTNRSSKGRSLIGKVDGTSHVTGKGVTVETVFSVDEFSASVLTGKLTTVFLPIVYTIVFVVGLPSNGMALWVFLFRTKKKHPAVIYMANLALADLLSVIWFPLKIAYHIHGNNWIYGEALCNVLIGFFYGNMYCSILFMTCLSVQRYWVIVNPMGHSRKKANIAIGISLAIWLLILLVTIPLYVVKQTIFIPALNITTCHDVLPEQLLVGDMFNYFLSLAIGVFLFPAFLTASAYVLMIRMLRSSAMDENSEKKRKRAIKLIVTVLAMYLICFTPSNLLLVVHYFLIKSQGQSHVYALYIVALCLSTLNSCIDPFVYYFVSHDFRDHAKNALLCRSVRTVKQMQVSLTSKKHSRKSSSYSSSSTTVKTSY
MCT2, sequence (O60669 whole entry, species assumed): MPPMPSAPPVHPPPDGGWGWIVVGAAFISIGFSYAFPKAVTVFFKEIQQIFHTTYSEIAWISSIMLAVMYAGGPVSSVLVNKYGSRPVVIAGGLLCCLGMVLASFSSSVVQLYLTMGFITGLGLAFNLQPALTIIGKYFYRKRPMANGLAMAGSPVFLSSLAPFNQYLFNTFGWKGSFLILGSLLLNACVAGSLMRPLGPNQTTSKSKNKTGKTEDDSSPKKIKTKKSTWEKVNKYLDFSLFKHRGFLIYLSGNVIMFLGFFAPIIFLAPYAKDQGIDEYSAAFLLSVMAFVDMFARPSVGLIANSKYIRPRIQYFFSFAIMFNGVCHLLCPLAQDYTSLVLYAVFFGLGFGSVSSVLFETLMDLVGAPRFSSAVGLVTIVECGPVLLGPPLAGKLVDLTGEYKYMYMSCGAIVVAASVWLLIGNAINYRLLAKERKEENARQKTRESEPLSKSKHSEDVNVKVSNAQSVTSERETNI

On to `OCCNCCCOc1cccc(Cl)c1Cl` [2,3-DCPE, 2-[3-(2,3-dichlorophenoxy)propylamino]ethanol;hydrochloride], for which the values for the IC50 in series [1] and in series [2] were 0.89 to 2.69 µM and 12.6 µM, respectively.

Regarding `CN(C)C(=O)n1nnnc1Cc1ccc(-c2ccccc2)cc1` [LY2183240, N,N-dimethyl-5-[(4-biphenyl)methyl]tetrazole-1-carboxamide], the IC50 in series [3] (read-out: IC50, anandamide uptake) is 270 µM. In addition, the inhibition constant Ki in series [3] (read-out: Ki, anandamide uptake) is 540 µM. Also, the “ED50, increase of anandamide levels” value in [4] is listed as 1.37 mg/kg.

As to `CC[C@H]1/C=C/C=C/C[C@@H](C)[C@H](O)[C@@](C)(O)C(=O)[C@@H](C)[C@H](O)[C@@H](C)C(=O)[C@@H](C)[C@H](O)[C@@H](C)/C=C/C(=O)O[C@@H]2[C@H](C)[C@H](CC1)O[C@]1(CC[C@H](C)[C@H](C[C@@H](C)O)O1)[C@H]2C` [Oligomycin A, (1R,4E,5′S,6S,6′S,7R,8S,10R,11R,12S,14R,15S,16R,18E,20E,22R,25S,27R,28S,29R)-22-ethyl-7,11,14,15-tetrahydroxy-6′-[(2R)-2-hydroxypropyl]-5′,6,8,10,12,14,16,28,29-nonamethyl-3′,4′,5′,6′-tetrahydro-3H,9H,13H-spiro[2,26-dioxabicyclo[23.3.1]nonacosa-4,18,20-triene-27,2′-pyran]-3,9,13-trione], the 50% growth inhibitory concentration (GI50) in [5] was 0.27 µM. Besides, in series [6], the “solubility in water and other biocompatible solvents” value is listed as “poor solubility”.

Take `O=C(CCc1ccc(O)cc1)c1c(O)cc(O)cc1O` [Phloretin, 3-(4-hydroxyphenyl)-1-(2,4,6-trihydroxyphenyl)propan-1-one]: the figures for the IC50 in series [7] and in [8] were 28 µM and 14 µM, respectively. Moreover, in [9], the Ki was 86 µM.

Consider `O=C(Nc1ccc([N+](=O)[O-])cc1O)Nc1ccccc1Br` [SB 225002, 1-(2-bromophenyl)-3-(2-hydroxy-4-nitrophenyl)urea], for which the results for the 50% inhibitory concentration (IC50) in series [10] and in [11] were 0.02 µM and 0.03 µM, respectively.

Regarding `CC(C)c1ccc(Cn2ccc3c4c(N)nc(NC5CC5)nc4ccc32)cc1` [SCH 79797, 3-N-cyclopropyl-7-[(4-propan-2-ylphenyl)methyl]pyrrolo[3,2-f]quinazoline-1,3-diamine], in [12], the “activity against PAR2” value is “no activity”. Also, the half-inhibitory concentration (IC50) was 0.3 µM in [13] (inducer haTRAP, read-out: IC50, platelet aggregation induced by haTRAP); 3 µM in series [13] (inducer α-thrombin, read-out: IC50, platelet aggregation induced by α-thrombin); 0.07 µM in series [14]. In series [15], the “activity against PAR4” value is listed as “no activity”.

In the case of `CC(C)(C)c1ccc(S(=O)(=O)NCc2ccc(C(=O)Nc3cccnc3)cc2)cc1` [STF-31, 4-[[[[4-(1,1-dimethylethyl)phenyl]sulfonyl]amino]methyl]-N-3-pyridinyl-benzamide], in [16], the half-maximal inhibitory concentration (IC50) was approximately 1 µM.

With `COCCn1c2c([n+](Cc3cnccn3)c1C)C(=O)c1ccccc1C2=O` [YM-155, 1-(2-methoxyethyl)-2-methyl-3-(pyrazin-2-ylmethyl)benzo[f]benzimidazol-3-ium-4,9-dione;bromide], the half-maximal inhibitory concentration (IC50) in [17] was 0.00054 µM. The “selectivity of growth inhibition, mesenchymal vs epithelial cancer cells” value in [18] is “selective for inhibiting growth of mesenchymal cancer cells; also recorded: selectively targeted cancer cells that have undergone an epithelial-to-mesenchymal transition”. Further, in [19], the “selective efficacy / lethality in the mesenchymal cell state” value is “potent selectivity against the mesenchymal cell state”. Also, the “correlation of compound AUC with composite EMT signatures” value in [20] is recorded as “top positively correlated compound”. Further, the “inhibition of SV40 promoter activity” value in series [21] is listed as “does not significantly inhibit”.

Consider `O=C(Nc1ccc([N+](=O)[O-])cc1Cl)c1cc(Cl)ccc1O` [niclosamide, 5-chloro-N-(2-chloro-4-nitrophenyl)-2-hydroxybenzamide], for which the “selective efficacy / lethality in the mesenchymal cell state” value in series [19] was “selective efficacy in mesenchymal cancer cells”. Further, the “correlation of compound AUC with composite EMT signatures” value in series [22] is on record as “top positively correlated compound”.
